Values quoted from earlier work in patent US10822400B2, “Dynamin 2 inhibitor for the treatment of Duchenne's muscular dystrophy” (UNIVERSITE DE STRASBOURG, priority 2015, dated 2020).

Tests used:
dynamin 2 = molecular target: T1, dynamin 2 (Homo sapiens, UniProt P50570); conditions: read-out: IC50 for inhibition of dynamin 2 (dynamin II)
T1 sequence (P50570 1-870): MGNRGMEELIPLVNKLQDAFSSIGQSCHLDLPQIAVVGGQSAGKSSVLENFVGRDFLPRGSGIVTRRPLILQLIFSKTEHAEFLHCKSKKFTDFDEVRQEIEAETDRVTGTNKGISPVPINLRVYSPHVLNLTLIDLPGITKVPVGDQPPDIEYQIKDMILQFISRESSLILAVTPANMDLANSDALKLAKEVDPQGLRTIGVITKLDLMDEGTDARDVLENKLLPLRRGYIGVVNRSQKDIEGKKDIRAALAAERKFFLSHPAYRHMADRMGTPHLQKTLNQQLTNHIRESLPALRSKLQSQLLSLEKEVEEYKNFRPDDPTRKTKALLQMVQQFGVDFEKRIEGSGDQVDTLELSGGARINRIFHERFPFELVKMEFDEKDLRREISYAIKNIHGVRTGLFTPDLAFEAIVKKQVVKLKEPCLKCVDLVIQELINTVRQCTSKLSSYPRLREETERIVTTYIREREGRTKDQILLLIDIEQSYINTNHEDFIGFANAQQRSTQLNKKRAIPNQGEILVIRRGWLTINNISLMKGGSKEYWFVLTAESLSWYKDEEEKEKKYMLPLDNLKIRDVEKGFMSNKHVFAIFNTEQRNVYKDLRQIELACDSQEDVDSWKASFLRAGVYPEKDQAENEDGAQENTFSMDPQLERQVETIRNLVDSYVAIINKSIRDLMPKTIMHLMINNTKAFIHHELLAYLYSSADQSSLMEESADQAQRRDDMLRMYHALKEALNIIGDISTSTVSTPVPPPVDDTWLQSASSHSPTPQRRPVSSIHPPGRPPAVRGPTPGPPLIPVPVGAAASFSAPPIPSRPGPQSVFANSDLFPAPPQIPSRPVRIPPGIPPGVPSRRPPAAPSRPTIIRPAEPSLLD

mitochondrial division = conditions: read-out: IC50 as mitochondrial division inhibitor
[1] = molecular target: receptor-mediated and synaptic vesicle endocytosis; conditions: read-out: IC50 for inhibition of receptor-mediated and synaptic vesicle endocytosis

For `O=C(NN=Cc1cc(O)c(O)cc1O)c1cc2ccccc2cc1O` [Hydroxy-Dynasore, 3-Hydroxy-N′-[(2,4,5-trihydroxyphenyl)methylidene]naphthalene-2-carbohydrazide], the IC50 (dynamin 2) is given as 2.6 µM.

For `COc1cc(-n2c(S)nc3ccccc3c2=O)c(Cl)cc1Cl` [M-divi 1, 3-(2,4-Dichloro-5-methoxyphenyl)-2-sulfanylquinazolin-4(3H)-one], the IC50 (mitochondrial division) is listed as 10 µM.

In the case of `CCCCCCCCCCCCCC[N+](C)(C)C` [MiTMAB, Tetradecyltrimethylammonium bromide], the IC50 [1] is listed as 2.2 µM.
